This note sets out measurements from PubChem BioAssay (NCI).

Structures are written as SMILES.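 Where inhibition never reached the appropriate level, the endpoint shown equals the highest concentration tested. Otherwise, values were interpolated linearly from a five-concentration, 48-hour dose response in 96-well plates. TGI is the concentration that stops growth completely.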 A value given as a limit tells only on which side of the number the result lay.

Some test systems named below: A549 NSCLC; ACHN renal; COLO 205 colon; DLD-1 colon; DMS 273 small cell lung; HOP-62 NSCLC; M19-MEL melanoma; SK-MEL-2 melanoma; SR leukemia.
Holding throughout (test): NCI anticancer screen, dose series, 48 h

Regarding `O=C1CC(C2(O)C(=O)Nc3ccc([N+](=O)[O-])cc32)c2ccccc21` (centres undefined), the TGI in the assay on A549 NSCLC was more than 100 µM; in the assay on ACHN renal, more than 100 µM; with COLO 205 colon it was 71.6 µM; with DLD-1 colon, more than 100 µM; in the assay with DMS 273 small cell lung it was 41.4 µM; in the assay on HOP-62 NSCLC, more than 100 µM. The figures for the TGI in the assay with M19-MEL melanoma, with SK-MEL-2 melanoma and with SR leukemia were 78.7 µM, 36.5 µM and 46.6 µM, respectively.

Take `C=CCC12CC(=O)CCC1c1ccc(OC)cc1C2=O` (centres undefined): the TGI in the assay with A549 NSCLC, in the assay with ACHN renal, in the assay on COLO 205 colon, in the assay with DLD-1 colon, in the assay on DMS 273 small cell lung and with HOP-62 NSCLC was more than 100 µM throughout. Moreover, the TGI in the assay with M19-MEL melanoma, with SK-MEL-2 melanoma and in the assay on SR leukemia was more than 100 µM each time.

With `COc1cc2c(cc1OC)C(C(CBr)CBr)N(C1CCCC1)CC2` (centres undefined), the TGI with A549 NSCLC, in the assay with ACHN renal, in the assay with COLO 205 colon, in the assay with DLD-1 colon, in the assay on DMS 273 small cell lung and in the assay on HOP-62 NSCLC was more than 100 µM each time. The TGI with M19-MEL melanoma, with SK-MEL-2 melanoma and with SR leukemia was more than 100 µM throughout.

In the case of `CC(/C=C/C(=O)c1sc(C(N)=S)nc1C)=C\c1ccccc1`, the TGI is more than 100 µM in the assay on A549 NSCLC; more than 100 µM in the assay with ACHN renal; more than 100 µM with COLO 205 colon; 57.4 µM in the assay on DLD-1 colon; 45.5 µM with DMS 273 small cell lung; more than 100 µM in the assay with HOP-62 NSCLC. The results for the TGI with M19-MEL melanoma, in the assay on SK-MEL-2 melanoma and with SR leukemia were more than 100 µM, more than 100 µM and 98 µM, respectively.

Turning to `COc1ccc(-c2cc3ccccc3[nH]c2=O)cc1OC`, the TGI with A549 NSCLC, in the assay with ACHN renal, in the assay on COLO 205 colon, in the assay with DLD-1 colon, in the assay with DMS 273 small cell lung and with HOP-62 NSCLC was more than 100 µM throughout. Further, the TGI in the assay on M19-MEL melanoma, in the assay on SK-MEL-2 melanoma and with SR leukemia was more than 100 µM each time.

In the case of `CCC1CCCCN1CC(C(C)=O)C(c1ccccc1)c1c(O)c2ccccc2oc1=O` (centres undefined), the TGI in the assay with A549 NSCLC, in the assay on ACHN renal, with COLO 205 colon, in the assay on DLD-1 colon, in the assay on DMS 273 small cell lung and in the assay on HOP-62 NSCLC was more than 100 µM throughout. Besides, the TGI in the assay on M19-MEL melanoma, with SK-MEL-2 melanoma and in the assay with SR leukemia was more than 100 µM each time.
